Assays:
Type in all cases: functional
NCI-H23 = test: Growth inhibition of human NCI-H23 cells incubated for 48 hrs by sulforhodamine B assay; conditions: NCI-H23, 48 h
A549 = test: Growth inhibition of human A549/ATCC cells incubated for 48 hrs by sulforhodamine B assay; conditions: A549, 48 h
MOLT-4 = test: Growth inhibition of human MOLT4 cells incubated for 48 hrs by sulforhodamine B assay; conditions: MOLT-4, 48 h
TK-10 = test: Growth inhibition of human TK10 cells incubated for 48 hrs by sulforhodamine B assay; conditions: TK-10, 48 h
SK-MEL-2 = test: Growth inhibition of human SK-MEL-2 cells incubated for 48 hrs by sulforhodamine B assay; conditions: SK-MEL-2, 48 h
COLO 205 = test: Growth inhibition of human COLO205 cells incubated for 48 hrs by sulforhodamine B assay; conditions: COLO 205, 48 h
EKVX = test: Growth inhibition of human EKVX cells incubated for 48 hrs by sulforhodamine B assay
DU-145 = test: Growth inhibition of human DU145 cells incubated for 48 hrs by sulforhodamine B assay; conditions: DU-145, 48 h
SNB-19 = test: Growth inhibition of human SNB19 cells incubated for 48 hrs by sulforhodamine B assay; conditions: SNB-19, 48 h
SR = test: Growth inhibition of human SR cells incubated for 48 hrs by sulforhodamine B assay
OVCAR-4 = test: Growth inhibition of human OVCAR4 cells incubated for 48 hrs by sulforhodamine B assay; conditions: OVCAR-4, 48 h
Hs-578T = test: Growth inhibition of human Hs 578T cells incubated for 48 hrs by sulforhodamine B assay
RPMI-8226 = test: Growth inhibition of human RPMI8226 cells incubated for 48 hrs by sulforhodamine B assay; conditions: RPMI-8226, 48 h
M14 = test: Growth inhibition of human M14 cells incubated for 48 hrs by sulforhodamine B assay; conditions: M14, 48 h
BT-549 = test: Growth inhibition of human BT549 cells incubated for 48 hrs by sulforhodamine B assay; conditions: BT-549, 48 h
SF-268 = test: Growth inhibition of human SF268 cells incubated for 48 hrs by sulforhodamine B assay; conditions: SF-268, 48 h
SW-620 = test: Growth inhibition of human SW620 cells incubated for 48 hrs by sulforhodamine B assay; conditions: SW-620, 48 h
SN12C = test: Growth inhibition of human SN12C cells incubated for 48 hrs by sulforhodamine B assay
RXF 393 = test: Growth inhibition of human RXF393 cells incubated for 48 hrs by sulforhodamine B assay; conditions: RXF 393, 48 h
NCI-H460 = test: Growth inhibition of human NCI-H460 cells incubated for 48 hrs by sulforhodamine B assay; conditions: NCI-H460, 48 h
NCI-H226 = test: Growth inhibition of human NCI-H226 cells incubated for 48 hrs by sulforhodamine B assay; conditions: NCI-H226, 48 h
HOP-62 = test: Growth inhibition of human HOP62 cells incubated for 48 hrs by sulforhodamine B assay; conditions: HOP-62, 48 h
KM12 = test: Growth inhibition of human KM12 cells incubated for 48 hrs by sulforhodamine B assay; conditions: KM12, 48 h
HCT-15 = test: Growth inhibition of human HCT15 cells incubated for 48 hrs by sulforhodamine B assay; conditions: HCT-15, 48 h
CAKI-1 = test: Growth inhibition of human Caki1 cells incubated for 48 hrs by sulforhodamine B assay; conditions: CAKI-1, 48 h
SF-295 = test: Growth inhibition of human SF295 cells incubated for 48 hrs by sulforhodamine B assay; conditions: SF-295, 48 h
UO-31 = test: Growth inhibition of human UO31 cells incubated for 48 hrs by sulforhodamine B assay; conditions: UO-31, 48 h
PC-3 = test: Growth inhibition of human PC3 cells incubated for 48 hrs by sulforhodamine B assay; conditions: PC-3, 48 h
HCT-116 = test: Growth inhibition of human HCT116 cells incubated for 48 hrs by sulforhodamine B assay; conditions: HCT-116, 48 h
SK-MEL-5 = test: Growth inhibition of human SK-MEL-5 cells incubated for 48 hrs by sulforhodamine B assay; conditions: SK-MEL-5, 48 h
A498 = test: Growth inhibition of human A498 cells incubated for 48 hrs by sulforhodamine B assay; conditions: A498, 48 h
OVCAR-5 = test: Growth inhibition of human OVCAR5 cells incubated for 48 hrs by sulforhodamine B assay; conditions: OVCAR-5, 48 h
SNB-75 = test: Growth inhibition of human SNB75 cells incubated for 48 hrs by sulforhodamine B assay; conditions: SNB-75, 48 h
MDA-MB-231 = test: Growth inhibition of human MDA-MB-231 cells incubated for 48 hrs by sulforhodamine B assay; conditions: MDA-MB-231, 48 h
SK-OV-3 = test: Growth inhibition of human SKOV3 cells incubated for 48 hrs by sulforhodamine B assay; conditions: SK-OV-3, 48 h
UACC-62 = test: Growth inhibition of human UACC62 cells incubated for 48 hrs by sulforhodamine B assay; conditions: UACC-62, 48 h
U-251 = test: Growth inhibition of human U251 cells incubated for 48 hrs by sulforhodamine B assay; conditions: U-251, 48 h
T47D = test: Growth inhibition of human T47D cells incubated for 48 hrs by sulforhodamine B assay
OVCAR-8 = test: Growth inhibition of human OVCAR8 cells incubated for 48 hrs by sulforhodamine B assay; conditions: OVCAR-8, 48 h
786-0 = test: Growth inhibition of human 786-0 cells incubated for 48 hrs by sulforhodamine B assay; conditions: 786-0, 48 h
Malme-3M = test: Growth inhibition of human MALME-3M cells incubated for 48 hrs by sulforhodamine B assay
IGROV-1 = test: Growth inhibition of human IGROV1 cells incubated for 48 hrs by sulforhodamine B assay; conditions: IGROV-1, 48 h
MDA-MB-468 = test: Growth inhibition of human MDA-MB-468 cells incubated for 48 hrs by sulforhodamine B assay; conditions: MDA-MB-468, 48 h
HL-60(TB) = test: Growth inhibition of human HL-60(TB) cells incubated for 48 hrs by sulforhodamine B assay; conditions: HL-60, 48 h
NCI-H322M = test: Growth inhibition of human NCI-H322M cells incubated for 48 hrs by sulforhodamine B assay
NCI-H522 = test: Growth inhibition of human NCI-H522 cells incubated for 48 hrs by sulforhodamine B assay; conditions: NCI-H522, 48 h
ACHN = test: Growth inhibition of human ACHN cells incubated for 48 hrs by sulforhodamine B assay
OVCAR-3 = test: Growth inhibition of human OVCAR3 cells incubated for 48 hrs by sulforhodamine B assay; conditions: OVCAR-3, 48 h
SF-539 = test: Growth inhibition of human SF539 cells incubated for 48 hrs by sulforhodamine B assay; conditions: SF-539, 48 h
CCRF-CEM = test: Growth inhibition of human CCRF-CEM cells incubated for 48 hrs by sulforhodamine B assay
UACC-257 = test: Growth inhibition of human UACC257 cells incubated for 48 hrs by sulforhodamine B assay; conditions: UACC-257, 48 h
HT-29 = test: Growth inhibition of human HT-29 cells incubated for 48 hrs by sulforhodamine B assay; conditions: HT-29, 48 h
MDA-MB-435 = test: Growth inhibition of human MDA-MB-435 cells incubated for 48 hrs by sulforhodamine B assay; conditions: MDA-MB-435, 48 h
SK-MEL-28 = test: Growth inhibition of human SK-MEL-28 cells incubated for 48 hrs by sulforhodamine B assay; conditions: SK-MEL-28, 48 h
LOX IMVI = test: Growth inhibition of human LOXIMVI cells incubated for 48 hrs by sulforhodamine B assay

## CNC(=O)c1cc(Oc2ccc(NC(=O)Nc3ccc(Cl)c(C(F)(F)F)c3)cc2)ccn1 [SORAFENIB]
NCI-H23
  GI50: 2 µM
A549
  TGI: 7.94 µM
MOLT-4
  TGI: 100 µM
TK-10
  TGI: 10 µM
SK-MEL-2
  GI50: 2 µM
  TGI: 6.31 µM
COLO 205
  GI50: 2 µM
  TGI: 3.16 µM
EKVX
  TGI: 19.9 µM
DU-145
  TGI: 7.94 µM
SNB-19
  TGI: 3.98 µM
SR
  TGI: 63.1 µM
OVCAR-4
  TGI: 25.1 µM
Hs-578T
  TGI: 3.98 µM
RPMI-8226
  TGI: 3.16 µM
M14
  GI50: 2 µM
  TGI: 3.16 µM
BT-549
  TGI: 3.98 µM
SF-268
  TGI: 3.98 µM
SW-620
  TGI: 5.01 µM
SN12C
  TGI: 3.16 µM
RXF 393
  TGI: 5.01 µM
NCI-H460
  TGI: 5.01 µM
NCI-H226
  GI50: 2 µM
  TGI: 3.16 µM
HOP-62
  GI50: 2 µM
  TGI: 3.16 µM
KM12
  TGI: 2.51 µM
HCT-15
  TGI: 3.16 µM
CAKI-1
  TGI: 12.6 µM
SF-295
  TGI: 6.31 µM
UO-31
  TGI: 6.31 µM
PC-3
  GI50: 2 µM
  TGI: 5.01 µM
HCT-116
  TGI: 2.51 µM
SK-MEL-5
  TGI: 2.51 µM
A498
  TGI: 3.16 µM
OVCAR-5
  TGI: 6.31 µM
SNB-75
  TGI: 3.98 µM
MDA-MB-231
  TGI: 3.16 µM
SK-OV-3
  TGI: 5.01 µM
UACC-62
  TGI: 2.51 µM
U-251
  GI50: 2 µM
  TGI: 3.16 µM
T47D
  TGI: 5.01 µM
OVCAR-8
  GI50: 3.16 µM
  TGI: 12.6 µM
786-0
  TGI: 5.01 µM
Malme-3M
  GI50: 2 µM
  TGI: 39.8 µM
IGROV-1
  TGI: 10 µM
MDA-MB-468
  GI50: 2 µM
  TGI: 5.01 µM
HL-60(TB)
  TGI: 100 µM
NCI-H322M
  TGI: 5.01 µM
NCI-H522
  GI50: 2 µM
  TGI: 5.01 µM
ACHN
  TGI: 10 µM
OVCAR-3
  TGI: 3.98 µM
SF-539
  TGI: 2.51 µM
CCRF-CEM
  GI50: 2 µM
  TGI: 5.01 µM
UACC-257
  GI50: 2 µM
HT-29
  GI50: 2 µM
  TGI: 5.01 µM
MDA-MB-435
  TGI: 5.01 µM
SK-MEL-28
  TGI: 2.51 µM
LOX IMVI
  TGI: 2.51 µM

From ChEMBL document CHEMBL3994622, “Design and synthesis of new RAF kinase-inhibiting antiproliferative quinoline derivatives. Part 2: Diarylurea derivatives” (Eur J Med Chem, 2017)
